This is an account of results in ChEMBL document CHEMBL1132847, “Substituted 1,6-naphthyridines as human cytomegalovirus inhibitors: conformational requirements” (Bioorg Med Chem Lett, 2000).

≈ marks a conversion by molar mass, not a printed value.

For the test, the system named is Human betaherpesvirus 5. In words: Concentration required to inhibit human cytomegalovirus by 50 percent. The class given is functional, organism-based.
With `Cc1cncc2ccc(C(=O)NCc3ccccc3OC(C)C)nc12`, half-maximal inhibition (IC50) required 0.0004 µg/mL (≈ 0.00119 µM).

In turn, `O=C(NCc1ccccc1OC(F)(F)F)c1ccc2cnccc2n1` registered an IC50 of 1 µg/mL (≈ 2.88 µM).

Molecule `O=C(NC1CCCOc2ccccc21)c1ccc2cnccc2n1` (stereo not drawn) showed an IC50 of 0.5 µg/mL (≈ 1.57 µM).

Turning to `CC(C)Oc1ccccc1CNC(=O)c1ccc2cnccc2n1`, the midpoint of inhibition, the IC50, lay at 0.005 µg/mL (≈ 0.0156 µM).

In the case of `CCOc1ccccc1CNC(=O)c1ccc2cnccc2n1`, the IC50 was 0.1 µg/mL (≈ 0.325 µM).

As to `Cc1ccccc1CNC(=O)c1ccc2cnccc2n1`, the IC50 came to 1 µg/mL (≈ 3.61 µM).

The molecule `O=C(NC1CCOc2ccccc21)c1ccc2cnccc2n1` (stereo not drawn) had an IC50 of 20 µg/mL (≈ 65.5 µM).

With `COc1ccccc1CN(C)C(=O)c1ccc2cnccc2n1`, the IC50 was over 25 µg/mL.
